Assays:
Assay in all cases: relative viability (nuclei count vs DMSO), 5 days (fraction); higher = more cells survive
Linifanib + Pictilisib = compound: Cc1ccc(F)c(NC(=O)Nc2ccc(-c3cccc4[nH]nc(N)c34)cc2)c1 [Linifanib] + CS(=O)(=O)N1CCN(Cc2cc3nc(-c4cccc5[nH]ncc45)nc(N4CCOCC4)c3s2)CC1 [Pictilisib] (partner 1 µM)
Outline: (§1)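 Five library-drug doses in √10 steps were combined with a fixed anchor-drug dose, or a single drug was given alone, by pin tool to lung cancer cell lines in 1536-well plates the day after seeding. Nuclei were stained and counted after 5 days. Relative viability is the nuclei count in treated wells over that in vehicle wells, taken as the median of duplicate plates.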

Linifanib + Tozasertib = compound: Cc1ccc(F)c(NC(=O)Nc2ccc(-c3cccc4[nH]nc(N)c34)cc2)c1 [Linifanib] + Cc1cc(Nc2cc(N3CCN(C)CC3)nc(Sc3ccc(NC(=O)C4CC4)cc3)n2)n[nH]1 [Tozasertib] (partner 0.1 µM)
Outline: as §1

Linifanib + AZD7762 = compound: Cc1ccc(F)c(NC(=O)Nc2ccc(-c3cccc4[nH]nc(N)c34)cc2)c1 [Linifanib] + NC(=O)Nc1cc(-c2cccc(F)c2)sc1C(=O)N[C@H]1CCCNC1 [AZD7762] (partner 0.2 µM)
Outline: as §1

Linifanib + Olaparib = compound: Cc1ccc(F)c(NC(=O)Nc2ccc(-c3cccc4[nH]nc(N)c34)cc2)c1 [Linifanib] + O=C(c1cc(Cc2n[nH]c(=O)c3ccccc23)ccc1F)N1CCN(C(=O)C2CC2)CC1 [Olaparib] (partner 8 µM)
Outline: as §1

Linifanib + Linsitinib = compound: Cc1ccc(F)c(NC(=O)Nc2ccc(-c3cccc4[nH]nc(N)c34)cc2)c1 [Linifanib] + C[C@]1(O)C[C@@H](c2nc(-c3ccc4ccc(-c5ccccc5)nc4c3)c3c(N)nccn32)C1 [Linsitinib] (partner 1 µM)
Outline: as §1

Linifanib + Lapatinib = compound: Cc1ccc(F)c(NC(=O)Nc2ccc(-c3cccc4[nH]nc(N)c34)cc2)c1 [Linifanib] + CS(=O)(=O)CCNCc1ccc(-c2ccc3ncnc(Nc4ccc(OCc5cccc(F)c5)c(Cl)c4)c3c2)o1 [Lapatinib] (partner 2 µM)
Outline: as §1

Row | Cell Line | relative viability (Linifanib + Pictilisib; first compound 0.03162 µM) | relative viability (Linifanib + Pictilisib; first compound 0.1 µM) | relative viability (Linifanib + Pictilisib; first compound 0.3162 µM) | relative viability (Linifanib + Tozasertib; first compound 0.03162 µM) | relative viability (Linifanib + Tozasertib; first compound 0.1 µM) | relative viability (Linifanib + Tozasertib; first compound 0.3162 µM) | relative viability (Linifanib + AZD7762; first compound 0.03162 µM) | relative viability (Linifanib + AZD7762; first compound 0.1 µM) | relative viability (Linifanib + AZD7762; first compound 0.3162 µM) | relative viability (Linifanib + Olaparib; first compound 0.03162 µM) | relative viability (Linifanib + Olaparib; first compound 0.1 µM) | relative viability (Linifanib + Olaparib; first compound 0.3162 µM) | relative viability (Linifanib + Linsitinib; first compound 0.03162 µM) | relative viability (Linifanib + Linsitinib; first compound 0.1 µM) | relative viability (Linifanib + Linsitinib; first compound 0.3162 µM) | relative viability (Linifanib + Lapatinib; first compound 0.03162 µM) | relative viability (Linifanib + Lapatinib; first compound 0.1 µM) | relative viability (Linifanib + Lapatinib; first compound 0.3162 µM)
1 | BEN | 0.516 | 0.606 | 0.581 | 0.446 | 0.441 | 0.484 | 0.693 | 0.78 | 0.764 | 1.11 | 0.942 | 0.985 | 0.842 | 0.896 | 0.83 | 0.6 | 0.767 | 0.713
2 | NCI-H1755 | 0.493 | 0.503 | 0.397 | 0.585 | 0.625 | 0.553 | 0.457 | 0.505 | 0.495 | 0.875 | 0.903 | 0.835 | 0.953 | 1.01 | 0.999 | 1.1 | 1.09 | 1.01
3 | NCI-H1793 | 0.336 | 0.285 | 0.332 | 0.253 | 0.467 | 0.372 | 0.269 | 0.844 | 0.541 | 0.848 | 1.13 | 0.802 | 0.897 | 0.976 | 0.817 | 0.7 | 0.765 | 0.765
4 | HCC-15 | 0.833 | 0.804 | 0.71 | 0.39 | 0.406 | 0.436 | 0.922 | 1.18 | 1.12 | 0.827 | 0.772 | 0.706 | 0.881 | 0.89 | 0.817 | 0.841 | 0.839 | 0.853
5 | LXF-289 | 0.849 | 0.874 | 0.784 | 0.185 | 0.173 | 0.172 | 1.11 | 1.15 | 0.934 | 1.13 | 1.2 | 0.898 | 0.989 | 1.02 | 0.972 | 0.914 | 0.936 | 0.831
6 | NCI-H358 | 0.407 | 0.37 | 0.32 | 0.113 | 0.112 | 0.106 | 0.667 | 0.495 | 0.574 | 0.521 | 0.771 | 0.55 | 0.691 | 0.738 | 0.693 | 0.531 | 0.543 | 0.433
7 | HOP-62 | 0.709 | 0.693 | 0.88 | 0.36 | 0.401 | 0.35 | 0.569 | 0.586 | 0.4 | 0.546 | 0.243 | 0.534 | 1.08 | 0.896 | 0.876 | 1.02 | 0.739 | 1.02
8 | NCI-H1993 | 0.838 | 0.77 | 0.963 | 0.62 | 0.638 | 0.57 | 0.974 | 0.894 | 0.831 | 1.03 | 1.13 | 0.963 | 0.749 | 0.691 | 0.788 | 0.796 | 0.853 | 0.878
9 | A-427 | 0.796 | 0.724 | 0.711 | 0.227 | 0.204 | 0.197 | 0.735 | 0.823 | 0.779 | 0.722 | 0.766 | 0.732 | 1.1 | 1.11 | 1.08 | 1.06 | 1.01 | 0.955
10 | 201T | 0.69 | 0.704 | 0.668 | 0.971 | 0.965 | 0.942 | 0.603 | 0.606 | 0.654 | 0.839 | 0.825 | 0.842 | 1.01 | 1.02 | 1.05 | 1.07 | 1.03 | 1.05
11 | NCI-H1651 | 0.591 | 0.582 | 0.355 | 0.618 | 0.832 | 0.695 | 0.428 | 0.483 | 0.544 | 0.181 | 0.202 | 0.195 | 0.997 | 1.14 | 0.9 | 0.981 | 0.88 | 0.817
12 | LC-2-ad | 0.379 | 0.57 | 0.437 | 0.416 | 0.445 | 0.472 | 0.871 | 0.878 | 0.804 | 0.729 | 0.705 | 0.55 | 0.691 | 0.851 | 0.766 | 1.06 | 1.04 | 0.883
13 | NCI-H1734 | 0.501 | 0.526 | 0.373 | 0.289 | 0.288 | 0.238 | 0.564 | 0.591 | 0.538 | 0.591 | 0.68 | 0.597 | 0.869 | 0.925 | 0.849 | 1.04 | 1.19 | 1.01
14 | EKVX | 0.508 | 0.512 | 0.454 | 0.477 | 0.448 | 0.338 | 0.78 | 0.873 | 0.808 | 0.953 | 0.868 | 0.914 | 1.11 | 1.03 | 0.868 | 0.209 | 0.24 | 0.222
15 | NCI-H838 | 0.464 | 0.466 | 0.458 | 0.248 | 0.301 | 0.229 | 0.907 | 0.952 | 0.953 | 0.753 | 0.783 | 0.71 | 0.973 | 1.14 | 0.901 | 1.01 | 1.11 | 0.933
16 | LOU-NH91 | 0.498 | 0.523 | 0.557 | 0.713 | 0.693 | 0.68 | 0.752 | 0.816 | 0.739 | 0.909 | 0.956 | 0.869 | 0.899 | 1.01 | 0.954 | 0.772 | 0.828 | 0.747
17 | NCI-H2347 | 0.863 | 0.987 | 0.817 | 0.615 | 0.523 | 0.591 | 0.822 | 0.803 | 0.653 | 0.629 | 0.646 | 0.565 | 0.994 | 0.96 | 0.954 | 0.955 | 0.927 | 0.909

From the supplement of paper PMC10307832
